For 7 molecules, MIC results are on record in DBAASP.

Some test systems named below: Vibrio alginolyticus; Rhizoctonia solani; Fusarium oxysporum; Shigella sonnei DSM 5570.
Common to all, as to assay: ≥ marks a high value that may be exact or a test limit, other limits are often not marked, values filed in µg/mL are converted to µM
The subject of test [1] is Neisseria gonorrhoeae F62.
For test [2], the system named is Neisseria gonorrhoeae FA19.
Test [3] has as its system Streptococcus pneumoniae BCRC 10794.
Test [4] deals with Vibrio harveyi BCRC 13812.
Test [5] has as its system Micrococcus luteus BCRC 11034.
Test [6] relates to Staphylococcus aureus BCRC 10780.
In test [7] the test system is Staphylococcus sp. BCRC 10451.
Test [8] deals with Staphylococcus aureus ATCC 25923.
The test system of test [9] is Colletotrichum graminicola.
Test [10] relates to Escherichia coli ATCC 25922.
In test [11] the test system is Candida albicans ATCC 90028.
Test [12] concerns Enterobacter cloacae HNTCC 53001.
In test [13] the test system is Enterococcus faecalis ATCC 29212.
Test [14] concerns Pseudomonas aeruginosa ATCC 27853.
Test [15] relates to Klebsiella pneumoniae KK3 9904.
Test [16] relates to Staphylococcus aureus NCTC 8325.
The test system of test [17] is Staphylococcus epidermidis RP62A.
The subject of test [18] is Proteus mirabilis ATCC 25933.
Test [19] concerns Pseudomonas aeruginosa DSM 1117.
Test [20] relates to Acinetobacter baumannii ATCC 19606.
In test [21] the test system is Candida tropicalis CEMTC 2385.
For test [22], the system named is Acinetobacter baumannii Al1852-ΔLpxD.
Test [23] relates to Staphylococcus aureus DSM 11729.
Test [24] relates to Candida albicans ATCC 10231.
For test [25], the system named is Klebsiella pneumoniae DSM 789.
Test [26] concerns Candida albicans CEMTC 34.
The subject of test [27] is Citrobacter freundii DSM 30029.
The subject of test [28] is Escherichia coli DSM 1103.
For test [29], the system named is Salmonella enterica DSM 17058.
For test [30], the system named is Acinetobacter baumannii AL1851-ΔLpxA.
Test [31] deals with Candida glabrata CEMTC 2563.
For test [32], the system named is Candida parapsilosis CEMTC 2529.
Test [33] relates to Staphylococcus epidermidis DSM 28319.
For test [34], the system named is Escherichia coli ATCC 35218.
Test [35] concerns Bacillus cereus ATCC 11778.
In test [36] the test system is Pseudomonas aeruginosa ATCC 9027.
Test [37] has as its system Lactiplantibacillus plantarum ATCC 14917.
Test [38] deals with Enterococcus faecalis JCM 5803T.
Test [39] deals with Listeria innocua ATCC 33090T.
Test [40] concerns Latilactobacillus sakei subsp. sakei JCM 1157T.

Converted amounts (≈) assume the structure as drawn. “And” between values parts separate entries of the source, which are not always exact repeats. Equal entries are not always repeated.

As for `CC(C)[C@H](NC(=O)[C@@H]1CSSC[C@H](N)C(=O)N[C@@H](Cc2ccc(O)cc2)C(=O)N[C@H]2CSSC[C@H](NC(=O)[C@H](Cc3ccccc3)NC(=O)[C@H](CCCN=C(N)N)NC(=O)[C@H](CCCN=C(N)N)NC(=O)[C@H](CCCN=C(N)N)NC2=O)C(=O)N[C@@H](C(C)C)C(=O)N1)C(N)=O` [CYCRRRFCVCV], the MIC stood at 3.2 µM (≈ 4.49 µg/mL) in test [1] and 10 µM (≈ 14 µg/mL) in test [2].

Consider `CC[C@H](C)[C@H](NC(=O)[C@H](Cc1ccccc1)NC(C)=O)C(=O)N[C@@H](Cc1ccccc1)C(=O)N[C@@H](Cc1cnc[nH]1)C(=O)N[C@H](C(=O)N[C@H](C(=O)N[C@@H](CCCCN)C(=O)NCC(=O)N[C@@H](CC(C)C)C(=O)N[C@@H](Cc1ccccc1)C(=O)N[C@@H](Cc1cnc[nH]1)C(=O)N[C@@H](C)C(=O)NCC(N)=O)[C@@H](C)CC)[C@@H](C)CC` [FIFHIIKGLFHAG], for which the MIC in test [3] is 16.7 µM (≈ 25.7 µg/mL); in [4], 4.17 µM (≈ 6.42 µg/mL); against Vibrio alginolyticus, 4.17 µM (≈ 6.42 µg/mL); in [5] it was no less than 33.3 µM; in test [6], 4.17 µM (≈ 6.42 µg/mL); in test [7] it was 4.17 µM (≈ 6.42 µg/mL).

In the case of `CC(C)[C@H](NC(=O)[C@@H]1CCCN1C(=O)[C@@H](N)Cc1ccccc1)C(=O)N[C@H](C(=O)N[C@@H](Cc1c[nH]c2ccccc12)C(=O)N1CCC[C@H]1C(=O)N[C@H](C(=O)N[C@@H](CCCCN)C(=O)N[C@@H](Cc1c[nH]c2ccccc12)C(=O)N[C@@H](Cc1c[nH]c2ccccc12)C(=O)N[C@@H](CCCCN)C(=O)NCC(N)=O)[C@@H](C)O)[C@@H](C)O` [FPVTWPTKWWKG], the MIC against Rhizoctonia solani is no less than 41.8 µM; in test [8], > 125 µM and 163 µM; in test [9] it was no less than 163 µM; in [10] it was > 125 µM and 163 µM; against Fusarium oxysporum it was no less than 163 µM.

As to `CC[C@H](C)[C@H](NC(=O)CNC(=O)[C@H](CCCCN)NC(=O)[C@H](Cc1ccccc1)NC(=O)[C@@H](NC(=O)[C@H](CCCCN)NC(=O)[C@H](CCCCN)NC(=O)[C@H](CC(C)C)NC(=O)[C@H](C)NC(=O)[C@H](CCCCN)NC(=O)[C@H](CC(C)C)NC(=O)CN)C(C)C)C(=O)N[C@@H](Cc1cnc[nH]1)C(=O)N[C@@H](CCCCN)C(=O)N[C@@H](C)C(=O)N[C@H](C(=O)N[C@@H](CCCCN)C(=O)N[C@@H](CC(C)C)C(=O)N[C@H](C(=O)N[C@@H](CC(N)=O)C(=O)N[C@@H](CCCCN)C(=O)N[C@@H](Cc1cnc[nH]1)C(=O)N[C@H](C(=O)N[C@@H](CCC(N)=O)C(=O)O)C(C)C)[C@@H](C)CC)[C@@H](C)CC` [GLKALKKVFKGIHKAIKLINKHVQ], the MIC in [11] was no less than 80 µM; in test [12], 2.5 µM (≈ 6.78 µg/mL); in test [13], greater than 80 µM; in [10] it was 5 µM (≈ 13.6 µg/mL); in [14], 5 µM (≈ 13.6 µg/mL); in test [15], 5 µM (≈ 13.6 µg/mL). For the same molecule, the results for the MIC in test [16], in [17] and in test [18] were 20 µM (≈ 54.2 µg/mL), 10 µM (≈ 27.1 µg/mL) and no less than 80 µM, respectively.

`NCCCC[C@H](NC(=O)[C@H](Cc1ccccc1)NC(=O)[C@H](Cc1ccccc1)NC(=O)[C@H](CCCCN)NC(=O)[C@H](Cc1ccccc1)NC(=O)[C@H](Cc1ccccc1)NC(=O)[C@H](CCCCN)NC(=O)[C@H](Cc1ccccc1)NC(=O)[C@H](Cc1ccccc1)NC(=O)[C@@H](N)CCCCN)C(N)=O` [KFFKFFKFFK]: the MIC in test [19] is 1 µM (≈ 1.41 µg/mL); against Shigella sonnei DSM 5570, 2 µM (≈ 2.83 µg/mL); in test [20], 32 µM (≈ 45.2 µg/mL); in test [21], 10 µM (≈ 14.1 µg/mL); in test [22], no less than 32 µM; in test [23] it was 16 µM (≈ 22.6 µg/mL). Also, the MIC in test [24] was 20 µM (≈ 28.3 µg/mL); in test [25] it was no less than 32 µM; in [26] it was 20 µM (≈ 28.3 µg/mL); in test [27], 4 µM (≈ 5.65 µg/mL); in test [28], 2 µM (≈ 2.83 µg/mL); in [29], 16 µM (≈ 22.6 µg/mL). Moreover, the MIC turned out to be 16 µM (≈ 22.6 µg/mL) in test [30], 20 µM (≈ 28.3 µg/mL) in test [31], 20 µM (≈ 28.3 µg/mL) in test [32] and 0.5 µM (≈ 0.706 µg/mL) in [33].

Turning to `CC(C)C[C@H](NC(=O)[C@@H](NC(=O)[C@H](CCCCN)NC(=O)[C@H](CCCCN)NC(=O)[C@H](CC(C)C)NC(=O)[C@@H](N)CC(C)C)C(C)C)C(=O)N[C@@H](CCCCN)C(=O)N[C@@H](C)C(=O)N[C@@H](C)C(=O)N[C@@H](C)C(N)=O` [LLKKVLKAAA], the MIC in test [8] is greater than 50 µM; in test [34], no less than 50 µM; in test [35], no less than 50 µM; in test [36], greater than 50 µM.

With `CC[C@H](C)[C@H](NC(=O)CNC(=O)CNC(=O)[C@@H]1CCCN1C(=O)[C@@H](N)[C@@H](C)O)C(=O)N[C@@H](CC(=O)O)C(=O)N[C@@H](Cc1ccccc1)C(=O)N[C@H](C(=O)N[C@@H](CO)C(=O)NCC(=O)NCC(=O)N1CCC[C@H]1C(=O)N[C@@H](Cc1cnc[nH]1)C(=O)N[C@H](C(=O)N[C@@H](C)C(=O)N[C@@H](CCC(N)=O)C(=O)N[C@@H](CC(=O)O)C(=O)N[C@H](C(=O)N[C@@H](CC(C)C)C(=O)N[C@@H](CC(N)=O)C(=O)N[C@@H](C)C(=O)N[C@H](C(=O)N[C@@H](CCCCN)C(=O)N[C@@H](CC(N)=O)C(=O)N[C@@H](Cc1ccccc1)C(=O)N[C@@H](Cc1ccccc1)C(=O)N[C@@H](CCCCN)C(=O)O)[C@@H](C)CC)C(C)C)C(C)C)[C@@H](C)CC` [TPGGIDFISGGPHVAQDVLNAIKNFFK], the MIC in test [37] was found to be 1.2 µM (≈ 3.41 µg/mL); in test [38] it was 0.3 µM (≈ 0.853 µg/mL); in [39] it was 0.59 µM (≈ 1.68 µg/mL); in [40] it was 0.3 µM (≈ 0.853 µg/mL).
